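Cultured in 96-well plates, cells were exposed to test compound for 48 hours across five concentrations. TGI: concentration producing complete growth inhibition.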
Tests used:
Assay in all cases: NCI anticancer screen, dose series, 48 h
[1] = test system: 786-0 renal
[2] = test system: A498 renal
[3] = test system: A549 NSCLC
[4] = test system: ACHN renal
[5] = test system: BT-549 breast
[6] = test system: CAKI-1 renal
[7] = test system: COLO 205 colon
[8] = test system: DU-145 prostate
[9] = test system: EKVX NSCLC
[10] = test system: HCC-2998 colon
[11] = test system: HCT-116 colon
[12] = test system: HCT-15 colon
[13] = test system: HL-60(TB) leukemia
[14] = test system: HOP-62 NSCLC
[15] = test system: HOP-92 NSCLC
[16] = test system: HS 578T breast
[17] = test system: HT29 colon
[18] = test system: IGROV1 ovarian
[19] = test system: K-562 leukemia
[20] = test system: LOX IMVI melanoma
[21] = test system: M14 melanoma
[22] = test system: MALME-3M melanoma
[23] = test system: MCF7 breast
[24] = test system: MDA-MB-231 breast
[25] = test system: MDA-MB-435
[26] = test system: NCI-H226 lung
[27] = test system: NCI-H23 lung
[28] = test system: NCI-H460 lung
[29] = test system: NCI-H522 lung
[30] = test system: NCI/ADR-RES ovarian
[31] = test system: OVCAR-3 ovarian
[32] = test system: OVCAR-4 ovarian
[33] = test system: OVCAR-5 ovarian
[34] = test system: OVCAR-8 ovarian
[35] = test system: PC-3 prostate
[36] = test system: RPMI-8226 leukemia
[37] = test system: RXF 393 renal
[38] = test system: SF-268 CNS
[39] = test system: SF-295 CNS
[40] = test system: SF-539 CNS
[41] = test system: SK-MEL-2 melanoma
[42] = test system: SK-MEL-28 melanoma
[43] = test system: SK-MEL-5 melanoma
[44] = test system: SK-OV-3 ovarian
[45] = test system: SN12C renal
[46] = test system: SNB-19 CNS
[47] = test system: SNB-75 CNS
[48] = test system: SW-620 colon
[49] = test system: T-47D breast
[50] = test system: TK-10 renal
[51] = test system: U251 CNS
[52] = test system: UACC-257 melanoma
[53] = test system: UACC-62 melanoma
[54] = test system: UO-31 renal

C1=CN2C[n+]3cccc(OCc4ccccc4)c3N=C2C(OCc2ccccc2)=C1
TGI [1]: > 100 µM
TGI [2]: > 100 µM
TGI [3]: > 100 µM
TGI [4]: > 100 µM
TGI [5]: 3.25 µM
TGI [6]: 73.1 µM
TGI [7]: 18 µM
TGI [8]: > 100 µM
TGI [9]: > 100 µM
TGI [10]: 23.2 µM
TGI [11]: > 100 µM
TGI [12]: > 100 µM
TGI [13]: 0.849 µM
TGI [14]: > 100 µM
TGI [15]: 81.4 µM
TGI [16]: 21.5 µM
TGI [17]: 47.1 µM
TGI [18]: 27.7 µM
TGI [19]: 42.4 µM
TGI [20]: 86 µM
TGI [21]: 56.4 µM
TGI [22]: 30.6 µM
TGI [23]: > 100 µM
TGI [24]: 56.1 µM
TGI [25]: 33.2 µM
TGI [26]: > 100 µM
TGI [27]: 39.9 µM
TGI [28]: > 100 µM
TGI [29]: 15.8 µM
TGI [30]: > 100 µM
TGI [31]: 25 µM
TGI [32]: 82.9 µM
TGI [33]: > 100 µM
TGI [34]: > 100 µM
TGI [35]: > 100 µM
TGI [36]: 9.26 µM
TGI [37]: > 100 µM
TGI [38]: > 100 µM
TGI [39]: 50 µM
TGI [40]: 26.7 µM
TGI [41]: 33.3 µM
TGI [42]: 36 µM
TGI [43]: 21.2 µM
TGI [44]: > 100 µM
TGI [45]: 25.3 µM
TGI [46]: 27.2 µM
TGI [47]: > 100 µM
TGI [48]: > 100 µM
TGI [49]: > 100 µM
TGI [50]: > 100 µM
TGI [51]: > 100 µM
TGI [52]: 27.5 µM
TGI [53]: 26.6 µM
TGI [54]: > 100 µM

Reference: PubChem BioAssay (NCI)
